Results taken from US6946588B2, “Nucleic acid encoding a modified threonine deaminase and methods of use” (Monsanto Technology LLC, priority 1996, dated 2005).

Key:
BktB β-ketothiolase = BktB β-ketothiolase (Cupriavidus necator, UniProt Q0KBP1); assay: Thiolysis kinetics of purified BktB β-ketothiolase; settings: 25° C.
Procedure: To enhance further our understanding of the kinetic characteristics of BktB β-ketothiolase, a thorough kinetic analysis of the enzyme's thiolysis activity was conducted using purified protein. The assay to determine the kinetic parameters Km and Vmax for βketobutyryl-CoA (C4), β-ketovaleryl-CoA (C5), and β-ketocaproyl-CoA (C6), was performed at 25° C. by the in situ generation of the β-keto compounds from their corresponding trans-2,3-enoyl-CoAs essentially as described by Haywood et al. (1988). Utilization of variable substrate concentrations permitted the determination of the descriptive kinetic parameters of the β-ketothiolase. Kinetic rates were determined only at fixed substrate concentrations in the Haywood et al. communication.
Purified BktB protein was prepared by growing E. coli […] transformed with pMON25754 in LB broth containing ampicillin (100μg/ml) overnight at 37° C. Cells were then harvested by centrifugation, and the pellet was resuspended in 50 mM KPi and 5% glycerol, sonicated, and the sonicate centrifuged to remove cellular debris. The cell extract was desalted using a PD-10 column (Pharmacia), and proteins resolved using a Pharmacia FPLC system and MonoQ anion-exchange column (Pharmacia). Buffer A was 10 mM Tris buffer, pH 7.8, plus 1 mM DTT; buffer B was buffer A plus 1 M KCl. The gradient was 0 to 10% B in 10 min, then to 35% B in 40 min. The flow rate was 1 ml/min, and the resolved proteins were collected at the rate of 1 ml/fraction. […] The enzyme was stored in 10 mM Tris-HCl, pH 7.8, 1 mM DTT, 50% glycerol at −20° C.
The C5 and C6 enoyl-CoAs were synthesized according to Schulz (1974) and purified using semi-prep C8-reverse-phase HPLC as described above for β-ketovaleryl-CoA. βketobutyryl-CoA (acetoacetyl-CoA) was purchased from Sigma (St. Louis, Mo.). The assay mixture (1 ml final volume) contained 150 mM EPPS, pH 8.0, 50 mM MgCl2, 1.5 mM pyruvate, 0.4 mM NAD+, and a coupling enzyme cocktail of three units crotonase, five units β-hydroxyacyl-CoA dehydrogenase, and 10 units lactic dehydrogenase. The enoyl-CoA was added to this mixture and the absorbance at 304 nm was monitored until it reached a plateau (typically about 5 min). CoA was added to this mixture, followed by BktB β-ketothiolase to initiate the reaction. The decrease in absorbance at 304 nm due to the thiolysis of the β-ketoacyl-CoA was utilized as a direct measure of activity. Extinction coefficients to convert absorbance units to μmol of product were 19.5, 12.2, and 14.0 cm^−1 mM^−1 for β-ketobutyryl-CoA, β-ketovaleryl-CoA, and β-ketocaproyl-CoA, respectively. β-ketoacyl-CoA concentration was varied from […] (CoA was fixed at 200 μM), and CoA concentration was varied from 20 to 400 μM (β-ketocaproyl-CoA was fixed at 60 μM) for determining kinetic parameters for β-ketoacyl-CoA and CoA, respectively. Reaction rates were calculated in the steady-state within the first minute following initiation. All data were fitted to the normal Michaelis-Menten equation using a non-linear regression analysis.

[1] = test system: A. eutrophus PhbA and BktB β-ketothiolases; assay: β-Ketothiolase condensation assay with 1-14C-acetyl-CoA (PhbA, BktB); type: biochemical; settings: 0.30 mM acetyl-CoA
Text: As noted above, A. eutrophus can produce P(3HB-co-3HV) copolymer when provided with an appropriate C5 precursor. […] One of these β-ketothiolases, designated BktB herein, was encoded on plasmid pBK6. A. eutrophus BktB was obtained from E. coli DH5α transformed with plasmid pMON25754. pMON25754 was produced from the A. eutrophus pBK6 clone (Slater et al., 1988) by deleting a 5.0 kb XhoI fragment (there is an additional XhoI site approximately 5.0 kb 5′ to the XhoI site shown in FIG. 1 of Slater et al.). The pBK6 clone was produced by Slater et al. (1988) from A. eutrophus H16, i.e., ATCC accession number 17699, which is publicly available from the American Type Culture Collection, 12301 Parklawn Drive, Rockville, Md. 20852. BktB was overexpressed from its native promoter on the high copy plasmid pMON25754 by growing the cells overnight at 37° C. to stationary phase in LB broth containing ampicillin (100 μg/ml). A. eutrophus PhbA was obtained from E. coli DH5α transformed with pMON25636 (FIG. 20) by growing the cells at 37° C. in LB broth containing ampicillin (100 μg/ml) to early log phase and then inducing with IPTG. Cells were harvested after two hours of further growth.
The activity of β-ketothiolases can be assayed in both the condensation and thiolysis directions. However, condensation activity for products that are the result of a mixed condensation of acetyl-CoA and a longer chain acyl-CoA are difficult to measure. This is due to the difficulty in distinguishing between acetoacetyl-CoA, the product of condensing two acetyl-CoA molecules, and the mixed condensation reaction product, both of which form simultaneously. To date, condensation assays have been spectrophotometrically-based, but these are valid only when there is a single acyl-CoA substrate present (i.e., acetyl-CoA) since they cannot discriminate between the products formed. The assay described below represents the first reported assay that permits complete quantitation of all condensation products regardless of the nature of starting substrates.
β-ketothiolase assays designed to measure the condensation activity with acetyl-CoA plus either propionyl-CoA or butyryl-CoA were performed using 1-^14C-labelled acetyl-CoA. Since the equilibrium for the reaction lies heavily toward the starting acyl-CoAs rather than the condensed β-ketoacyl-CoA product, the latter was “pulled” to the corresponding β-hydroxyacyl-CoA using NADH and β-ketoacyl-CoA dehydrogenase. In addition, to avoid the strong feedback inhibition of β-ketothiolase by free CoA, each assay solution contained 5,5′-dithio-bis(2-nitrobenzoic acid) (DTNB) to trap chemically the free CoA produced by the reaction.
The condensation assay mixture (0.5 ml final volume) contained 100 mM KPi, pH 7.8, 0.5 mM NADH, 0.30 mM 1-^14C-acetyl-CoA (0.15 μCi), 5 units β-ketoacyl-CoA dehydrogenase, 0.5 mM DTNB, and variable propionyl- or butyryl-CoA as indicated in Table 5. The reaction was initiated by the addition of β-ketothiolase. Following 20 minutes at 30° C., each reaction mixture was quenched by the addition of 25 μl of 10% formic acid. Thirty μl of 25% H2SO4 were added to 200 μl of quenched reaction mix; this mixture was then incubated at 70° C. for 24 hours to hydrolyze all CoA thioesters to their free acids. Sixty μl of 5 M sodium formate were added to the sample to neutralize the pH, followed by analysis of a 130 μl aliquot using C18-reverse-phase HPLC (0.5×25 cm column). Detection and quantitation were carried out by monitoring flow-through with a Radiomatic flow detector. A gradient elution was employed using aqueous 1% acetic acid (solvent A) and acetonitrile (solvent B). […]

Sequence of BktB β-ketothiolase (Q0KBP1 2-394 limits assumed): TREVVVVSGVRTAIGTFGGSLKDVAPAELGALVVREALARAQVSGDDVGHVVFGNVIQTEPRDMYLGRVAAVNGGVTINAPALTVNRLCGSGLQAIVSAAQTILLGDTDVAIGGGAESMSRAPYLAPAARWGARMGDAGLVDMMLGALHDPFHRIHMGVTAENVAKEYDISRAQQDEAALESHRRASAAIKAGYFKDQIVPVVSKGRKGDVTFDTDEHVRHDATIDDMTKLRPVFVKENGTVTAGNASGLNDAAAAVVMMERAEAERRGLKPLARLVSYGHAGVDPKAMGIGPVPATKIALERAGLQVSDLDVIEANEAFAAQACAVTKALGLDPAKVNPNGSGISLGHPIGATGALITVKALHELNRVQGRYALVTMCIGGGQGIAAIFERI

For `CC(=O)CC(=O)SCCNC(=O)CCNC(=O)[C@H](O)C(C)(C)COP(=O)(O)OP(=O)(O)OC[C@H]1O[C@@H](n2cnc3c(N)ncnc32)[C@H](O)[C@@H]1OP(=O)(O)O` [B-ketobutyryl-CoA], the Km (BktB β-ketothiolase; CoA fixed at 200 μM) was 37 ± 3 µM and the Vmax (BktB β-ketothiolase; CoA fixed at 200 μM) was 122 ± 5 u/mg.

`CC(C)(COP(=O)(O)OP(=O)(O)OC[C@H]1O[C@@H](n2cnc3c(N)ncnc32)[C@H](O)[C@@H]1OP(=O)(O)O)[C@@H](O)C(=O)NCCC(=O)NCCS` [CoA, coenzyme A] gave a Vmax (BktB β-ketothiolase; β-ketocaproyl-CoA fixed at 60 μM) of 98 ± 3 u/mg.

`CCCC(=O)CC(=O)SCCNC(=O)CCNC(=O)[C@H](O)C(C)(C)COP(=O)(O)OP(=O)(O)OC[C@H]1O[C@@H](n2cnc3c(N)ncnc32)[C@H](O)[C@@H]1OP(=O)(O)O` [B-ketocaproyl-CoA] gave a Km (BktB β-ketothiolase; CoA fixed at 200 μM) of 6 ± 0.7 µM and a Vmax (BktB β-ketothiolase; CoA fixed at 200 μM) of 103 ± 3 u/mg.

`CCC(=O)CC(=O)SCCNC(=O)CCNC(=O)[C@H](O)C(C)(C)COP(=O)(O)OP(=O)(O)OC[C@H]1O[C@@H](n2cnc3c(N)ncnc32)[C@H](O)[C@@H]1OP(=O)(O)O` [B-ketovaleryl-CoA] showed a Km (BktB β-ketothiolase; CoA fixed at 200 μM) of 15 ± 1 µM and a Vmax (BktB β-ketothiolase; CoA fixed at 200 μM) of 236 ± 8 u/mg.

B1: PhbA: A. eutrophus PhbA β-ketothiolase obtained from E. coli DH5α transformed with pMON25636 (protein, UniProt P14611 1-393, looked up)
Acetyl-CoA acetyltransferase: MTDVVIVSAARTAVGKFGGSLAKIPAPELGAVVIKAALERAGVKPEQVSEVIMGQVLTAGSGQNPARQAAIKAGLPAMVPAMTINKVCGSGLKAVMLAANAIMAGDAEIVVAGGQENMSAAPHVLPGSRDGFRMGDAKLVDTMIVDGLWDVYNQYHMGITAENVAKEYGITREAQDEFAVGSQNKAEAAQKAGKFDEEIVPVLIPQRKGDPVAFKTDEFVRQGATLDSMSGLKPAFDKAGTVTAANASGLNDGAAAVVVMSAAKAKELGLTPLATIKSYANAGVDPKVMGMGPVPASKRALSRAEWTPQDLDLMEINEAFAAQALAVHQQMGWDTSKVNVNGGAIAIGHPIGASGCRILVTLLHEMKRRDAKKGLASLCIGGGMGVALAVERK
modifications: expressed in E. coli
notes: A. eutrophus PhbA β-ketothiolase obtained from E. coli DH5α transformed with pMON25636
In the case of B1, the “% Turnover C4 Product” value ([1]; propionyl-CoA 0 mM) is reported as 16.9%, the “% Turnover C4 Product” value ([1]; propionyl-CoA 0.6 mM) is reported as 13.5% and the “% Turnover C5 Product” value ([1]; propionyl-CoA 0.6 mM) is reported as 0%. For the same molecule, the “% Turnover C4 Product” value ([1]; propionyl-CoA 1.2 mM) was 10.3%, the “% Turnover C5 Product” value ([1]; propionyl-CoA 1.2 mM) was 0% and the “% Turnover C4 Product” value ([1]; propionyl-CoA 2.4 mM) was 7.0%. For the same molecule, the “% Turnover C5 Product” value ([1]; propionyl-CoA 2.4 mM) was 0%.
